pIC50: −log10 of the molar value.
Tests used:
[1] = target: SGK(h) (Homo sapiens, UniProt O00141); test: Eurofins kinase assay
[2] = target: EGFR(h) (Homo sapiens, UniProt P00533); test: Eurofins kinase assay
[3] = target: CSK(h) (Homo sapiens, UniProt P41240); test: Eurofins kinase assay
[4] = target: GSK3β(h) (Homo sapiens, UniProt P49841); test: Eurofins kinase assay
[5] = Single oral dose toxicity study; assay type: in vivo, Sprague Dawley rats; conditions: 500 mg/kg oral
[6] = 2-week repeated oral DRF toxicity study; assay type: in vivo
[7] = target: PI3Kinase(p110a(H1047R)/p85a)(m) (Mus musculus, UniProt P42337, H1047R); test: Eurofins kinase assay
[8] = test system: MC38 syngeneic tumor; test: In vivo efficacy, syngeneic model; set-up: species or system C57BL/6 mice; conditions: 80 mg/kg po QD
Procedure: Human-derived colorectal cancer cell lines, LS513, HCT-116, and HT29, were subcutaneously transplanted into 6-week-old female BALB/c nude mice to establish tumor models. Additionally, the mouse cancer cell line MC38 was subcutaneously transplanted into 6-week-old female and C57BL/6 mice to induce tumor formation. […]. The treatments were administered orally once daily for 2 weeks based on the growth rate observed in the vehicle group. Tumor volume was evaluated three times a week using the formula Tumor volume (TV) = (tumor short diameter ^2 × tumor long diameter)/2. The body weight of the mice was measured three times a week to assess potential toxicity in vivo. […]

[9] = target: PKCε(h) (Homo sapiens, UniProt Q02156); test: Eurofins kinase assay
[10] = target: Rsk1(r) (Rattus norvegicus, UniProt Q63531); test: Eurofins kinase assay
[11] = test system: HCT116 (KRAS G13D); test: Cell proliferation assay (CellTiter-Glo); conditions: Homo sapiens, HCT-116, 72 h
Procedure: (§1) To assess cell viability, the CellTiter-Glo Luminescent Cell Viability Assay Reagent (Promega, Fitchburg, WI, USA) was added to each well. The assay measured ATP levels as an indicator of cell viability. All data points were normalized to the control samples treated with dimethyl sulfoxide when determining IC50 values. Statistical calculations and data analysis, including IC50 determination, were performed using GraphPad Prism software.

[12] = test system: HUVECs; test: Tube formation assay; assay type: cell-based, human
Procedure: Cell culture plates were coated with Matrigel at a concentration of 7 mg/mL and incubated at 37 °C for 45 min to allow gel formation. Human umbilical vein endothelial cells (HUVECs) were harvested using trypsin and resuspended in endothelial cell growth medium. Following a 5 h incubation period, the formation of endothelial cell tubes was assessed using an inverted photomicroscope (Nikon, Tokyo, Japan). Microphotographs were taken, and the quantification of tube formation, specifically tube length, was performed. To quantify tube formation, measurements were obtained using ImageJ. The long axis of each tube or single cell, as well as groups of adjacent cells, was measured.

[13] = target: PKCι(h) (Homo sapiens, UniProt P41743); test: Eurofins kinase assay
[14] = target: PI3Kinase(p110a(E545K)/p85a)(m) (Mus musculus, UniProt P42337, E545K); test: Eurofins kinase assay
[15] = target: MST2(h) (Homo sapiens, UniProt Q13188); test: Eurofins kinase assay
[16] = test system: KRAS and BRAF mutant cancer cells (HCT116, LS513, SW620, HT29); test: Cell growth assay, panel of cell lines; conditions: read-out: IC50 values, cell growth
Procedure: as §1

[17] = target: ATM(h) (Homo sapiens, UniProt Q13315); test: Eurofins kinase assay
[18] = target: MEK1(h) (Homo sapiens, UniProt Q02750); test: Eurofins kinase assay
[19] = target: BRAF (Homo sapiens, UniProt P15056); test: Eurofins kinase assay
[20] = target: CDK1/cyclinB(h) (Homo sapiens, UniProt P06493); test: Eurofins kinase assay
[21] = target: Ros(h) (Homo sapiens, UniProt P08922); test: Eurofins kinase assay
[22] = target: CDK7/cyclinH/MAT1(h) (Homo sapiens, UniProt P50613); test: Eurofins kinase assay
[23] = target: PRK2(h) (Homo sapiens, UniProt Q16513); test: Eurofins kinase assay
[24] = target: CDK2/cyclinA(h) (Homo sapiens, UniProt P24941); test: Eurofins kinase assay
[25] = target: Flt3(h) (Homo sapiens, UniProt P36888); test: Eurofins kinase assay
[26] = target: PKCη(h) (Homo sapiens, UniProt P24723); test: Eurofins kinase assay

Sequence of PI3Kinase(p110a(H1047R)/p85a)(m) (P42337 whole entry H1047R): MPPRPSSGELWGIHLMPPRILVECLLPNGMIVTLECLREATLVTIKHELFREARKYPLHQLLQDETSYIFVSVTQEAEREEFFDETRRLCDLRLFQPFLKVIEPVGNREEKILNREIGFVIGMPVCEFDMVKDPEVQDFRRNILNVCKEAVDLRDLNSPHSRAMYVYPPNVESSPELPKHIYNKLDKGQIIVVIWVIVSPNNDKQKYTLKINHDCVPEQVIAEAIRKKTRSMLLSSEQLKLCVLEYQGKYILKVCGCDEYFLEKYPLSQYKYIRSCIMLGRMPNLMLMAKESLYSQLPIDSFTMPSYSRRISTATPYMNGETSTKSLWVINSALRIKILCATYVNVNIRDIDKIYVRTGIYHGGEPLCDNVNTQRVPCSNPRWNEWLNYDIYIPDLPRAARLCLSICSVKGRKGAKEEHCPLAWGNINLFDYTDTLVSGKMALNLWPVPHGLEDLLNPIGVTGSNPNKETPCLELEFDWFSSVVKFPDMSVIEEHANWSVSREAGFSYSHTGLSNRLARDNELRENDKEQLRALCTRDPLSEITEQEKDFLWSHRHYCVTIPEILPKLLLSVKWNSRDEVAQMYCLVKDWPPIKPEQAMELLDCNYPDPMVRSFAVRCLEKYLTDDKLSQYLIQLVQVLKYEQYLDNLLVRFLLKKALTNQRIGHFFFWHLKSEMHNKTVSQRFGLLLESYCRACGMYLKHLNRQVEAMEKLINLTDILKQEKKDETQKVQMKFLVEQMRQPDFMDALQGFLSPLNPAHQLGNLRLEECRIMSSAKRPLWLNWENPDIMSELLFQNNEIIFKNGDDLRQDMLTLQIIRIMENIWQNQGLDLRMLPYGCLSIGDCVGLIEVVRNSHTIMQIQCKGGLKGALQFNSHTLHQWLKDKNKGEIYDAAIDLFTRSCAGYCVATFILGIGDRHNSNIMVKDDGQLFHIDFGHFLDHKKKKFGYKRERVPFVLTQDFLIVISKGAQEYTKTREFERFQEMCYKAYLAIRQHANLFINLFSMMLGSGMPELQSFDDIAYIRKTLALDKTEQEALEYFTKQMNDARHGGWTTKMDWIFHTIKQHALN
Sequence of PI3Kinase(p110a(H1047R)/p85a)(m) (P26450 2-724 partner): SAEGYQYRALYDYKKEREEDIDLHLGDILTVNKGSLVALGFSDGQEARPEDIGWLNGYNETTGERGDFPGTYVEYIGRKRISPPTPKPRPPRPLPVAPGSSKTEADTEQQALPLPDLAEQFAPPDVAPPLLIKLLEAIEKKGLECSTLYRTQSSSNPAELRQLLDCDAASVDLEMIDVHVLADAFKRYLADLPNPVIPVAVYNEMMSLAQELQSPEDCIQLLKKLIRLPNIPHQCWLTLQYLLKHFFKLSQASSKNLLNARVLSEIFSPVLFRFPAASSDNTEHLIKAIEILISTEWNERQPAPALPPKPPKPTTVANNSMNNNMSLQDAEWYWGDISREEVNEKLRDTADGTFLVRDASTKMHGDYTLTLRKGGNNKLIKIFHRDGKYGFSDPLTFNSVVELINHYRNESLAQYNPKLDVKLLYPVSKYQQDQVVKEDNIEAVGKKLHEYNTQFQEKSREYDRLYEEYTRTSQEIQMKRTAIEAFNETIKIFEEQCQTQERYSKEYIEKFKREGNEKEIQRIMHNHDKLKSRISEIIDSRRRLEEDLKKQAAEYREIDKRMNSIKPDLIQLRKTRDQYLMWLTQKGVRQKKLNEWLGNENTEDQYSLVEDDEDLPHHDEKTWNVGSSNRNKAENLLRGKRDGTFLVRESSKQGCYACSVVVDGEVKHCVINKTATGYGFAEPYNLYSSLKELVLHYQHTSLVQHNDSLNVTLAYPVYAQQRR
Sequence of PKCι(h) (P41743 whole entry): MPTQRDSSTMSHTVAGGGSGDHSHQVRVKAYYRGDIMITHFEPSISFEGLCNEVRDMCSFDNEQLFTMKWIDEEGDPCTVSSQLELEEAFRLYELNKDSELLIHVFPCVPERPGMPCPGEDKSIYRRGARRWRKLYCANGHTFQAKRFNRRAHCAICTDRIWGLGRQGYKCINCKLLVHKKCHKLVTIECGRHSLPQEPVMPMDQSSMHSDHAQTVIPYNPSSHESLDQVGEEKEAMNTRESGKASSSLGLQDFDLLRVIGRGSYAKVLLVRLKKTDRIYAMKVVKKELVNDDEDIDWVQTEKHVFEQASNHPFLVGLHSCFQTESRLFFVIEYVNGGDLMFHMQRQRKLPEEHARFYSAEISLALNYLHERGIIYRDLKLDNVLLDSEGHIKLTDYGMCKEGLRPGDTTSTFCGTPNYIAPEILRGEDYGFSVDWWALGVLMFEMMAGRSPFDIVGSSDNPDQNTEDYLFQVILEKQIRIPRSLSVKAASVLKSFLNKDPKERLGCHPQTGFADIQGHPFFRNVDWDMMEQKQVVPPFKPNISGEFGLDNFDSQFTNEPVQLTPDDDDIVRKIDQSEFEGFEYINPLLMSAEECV
Sequence of PRK2(h) (Q16513 whole entry): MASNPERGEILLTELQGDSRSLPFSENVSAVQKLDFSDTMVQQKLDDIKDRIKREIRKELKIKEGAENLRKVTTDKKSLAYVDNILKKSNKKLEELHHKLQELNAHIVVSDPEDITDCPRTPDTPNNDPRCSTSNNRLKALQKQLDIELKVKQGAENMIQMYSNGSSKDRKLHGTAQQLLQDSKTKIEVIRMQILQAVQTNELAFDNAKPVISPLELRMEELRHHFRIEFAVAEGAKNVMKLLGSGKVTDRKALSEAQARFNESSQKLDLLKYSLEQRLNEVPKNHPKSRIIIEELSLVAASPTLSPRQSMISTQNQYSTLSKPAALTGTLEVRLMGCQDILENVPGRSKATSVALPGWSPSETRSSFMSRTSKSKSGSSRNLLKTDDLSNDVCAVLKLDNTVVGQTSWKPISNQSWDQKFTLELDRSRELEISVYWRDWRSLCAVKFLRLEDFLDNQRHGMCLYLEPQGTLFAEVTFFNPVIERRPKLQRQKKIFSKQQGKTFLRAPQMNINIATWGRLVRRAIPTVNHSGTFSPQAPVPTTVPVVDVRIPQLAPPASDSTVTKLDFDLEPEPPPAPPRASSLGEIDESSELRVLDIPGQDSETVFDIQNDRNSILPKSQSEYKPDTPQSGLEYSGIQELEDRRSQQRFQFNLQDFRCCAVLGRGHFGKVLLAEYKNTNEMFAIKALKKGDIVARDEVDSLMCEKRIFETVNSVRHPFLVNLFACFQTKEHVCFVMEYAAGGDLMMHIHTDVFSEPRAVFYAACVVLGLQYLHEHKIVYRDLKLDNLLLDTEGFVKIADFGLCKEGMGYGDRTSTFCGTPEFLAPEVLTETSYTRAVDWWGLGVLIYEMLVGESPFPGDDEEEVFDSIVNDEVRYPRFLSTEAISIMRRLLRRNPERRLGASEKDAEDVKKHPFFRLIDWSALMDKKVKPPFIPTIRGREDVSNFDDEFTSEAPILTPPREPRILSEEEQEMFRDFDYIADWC
Sequence of PI3Kinase(p110a(E545K)/p85a)(m) (P42337 whole entry E545K): as the sequence (P42337 whole entry H1047R) above, with E545K, R1047H counted along it
Sequence of PI3Kinase(p110a(E545K)/p85a)(m) (P26450 2-724 partner): as the sequence (P26450 2-724 partner) above
Sequence of Rsk1(r) (Q63531 whole entry): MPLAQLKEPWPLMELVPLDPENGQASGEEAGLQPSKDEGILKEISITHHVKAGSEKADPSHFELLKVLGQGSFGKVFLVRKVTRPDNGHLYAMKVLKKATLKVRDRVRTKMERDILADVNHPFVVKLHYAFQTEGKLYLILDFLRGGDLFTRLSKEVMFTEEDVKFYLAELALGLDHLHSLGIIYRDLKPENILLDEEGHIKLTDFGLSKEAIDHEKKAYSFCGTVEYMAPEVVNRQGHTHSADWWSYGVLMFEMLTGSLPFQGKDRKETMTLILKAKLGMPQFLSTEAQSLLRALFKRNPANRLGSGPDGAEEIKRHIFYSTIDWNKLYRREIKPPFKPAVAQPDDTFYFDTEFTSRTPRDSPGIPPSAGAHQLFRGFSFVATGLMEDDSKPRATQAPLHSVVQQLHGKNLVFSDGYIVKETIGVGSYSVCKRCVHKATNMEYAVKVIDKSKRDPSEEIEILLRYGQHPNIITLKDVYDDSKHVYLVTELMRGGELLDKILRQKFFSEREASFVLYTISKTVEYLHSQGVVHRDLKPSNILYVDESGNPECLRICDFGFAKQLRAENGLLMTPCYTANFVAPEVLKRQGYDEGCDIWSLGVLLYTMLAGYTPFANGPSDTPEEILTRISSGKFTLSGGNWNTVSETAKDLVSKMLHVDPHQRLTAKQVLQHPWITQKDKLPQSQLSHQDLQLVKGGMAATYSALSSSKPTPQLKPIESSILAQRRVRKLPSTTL
Sequence of MST2(h) (Q13188 whole entry): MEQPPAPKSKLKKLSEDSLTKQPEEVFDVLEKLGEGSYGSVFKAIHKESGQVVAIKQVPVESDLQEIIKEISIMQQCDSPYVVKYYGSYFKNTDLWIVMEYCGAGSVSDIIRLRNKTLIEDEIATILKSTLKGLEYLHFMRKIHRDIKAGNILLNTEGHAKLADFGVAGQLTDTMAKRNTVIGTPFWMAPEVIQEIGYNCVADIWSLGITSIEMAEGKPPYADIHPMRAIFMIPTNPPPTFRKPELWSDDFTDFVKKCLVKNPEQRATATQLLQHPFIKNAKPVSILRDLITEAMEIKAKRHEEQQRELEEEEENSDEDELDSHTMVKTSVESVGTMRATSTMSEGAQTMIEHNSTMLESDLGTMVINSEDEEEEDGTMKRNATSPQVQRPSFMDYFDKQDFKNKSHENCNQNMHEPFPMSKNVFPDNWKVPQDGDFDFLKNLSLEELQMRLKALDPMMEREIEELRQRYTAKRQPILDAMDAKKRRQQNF

O=C(Nc1cc(Nc2ncccc2-c2ncnc3[nH]cnc23)ccc1F)c1cc(C(F)(F)F)cc(C(F)(F)F)c1 [SJ-C1044, N-(5-(3-(9H-purin-6-yl)pyridin-2-ylamino)-2-fluorophenyl)-3,5-bis(trifluoromethyl)benzamide]
inhibition at 10 µM [1]: -34%
inhibition at 10 µM [2]: -4%
inhibition at 10 µM [3]: 3%
inhibition at 10 µM [4]: -5%
single oral dose toxicity [5]: no respiratory effects or signs of toxicity
2-week repeated oral toxicity ([6]; 250 mg/kg oral): no toxicity
2-week repeated oral toxicity ([6]; 500 mg/kg oral): decreased body weight
inhibition at 10 µM [7]: 37%
TGI ([8]; 14 days): 88%
MC38 tumor growth in vivo ([8]; compared to the control): completely inhibited
inhibition at 10 µM [9]: -5%
inhibition at 10 µM [10]: -12%
GI50 [11]: 160 nM
VEGF-stimulated endothelial tube formation [12]: strong activity
VEGF-induced tube formation, compared to LY3009120 ([12]; 10 μM, 10 nmol/L VEGF): more effectively blocked
inhibition at 10 µM [13]: 11%
inhibition at 10 µM [14]: 20%
inhibition at 10 µM [15]: 9%
pIC50 [16]: 6.20 to 6.80
inhibition at 10 µM [17]: 12%
inhibition at 10 µM [18]: 1%
inhibition at 10 µM [19]: 68%
inhibition at 10 µM [20]: -10%
inhibition at 10 µM [21]: -12%
inhibition at 10 µM [22]: 10%
inhibition at 10 µM [23]: -2%
inhibition at 10 µM [24]: -8%
inhibition at 10 µM [25]: 3%
inhibition at 10 µM [26]: 3%

From paper PMC10378394 (Current Issues in Molecular Biology, 2023)
